Measurements: the supplement of paper PMC10883282

Columns and labels:
G401 = assay: standardised AUC of viability dose-response curve (72 h) (fraction (0-1)); higher = less growth inhibition (more resistant)
Procedure, shortened: (§1)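 After 72 h with 2.5 µl of compound (compound-plate series 10 mM to 0.0002 mM), triplicate wells of sarcoma cell lines in 384-well plates were read with ATPLite, with viability scaled 1 (full) to 0 (none) and fitted with a four-parameter log-logistic model. The values give the standardised area under the dose-response curve in log-dose space from a modified drexplorer computeAUC. A value of 1 means no response and 0 means full response.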

HS729 [1] = assay: as above
Procedure, shortened: as §1

SK-LMS-1 [2] = assay: as above
Procedure, shortened: as §1

SYO-1 = assay: as above
Procedure, shortened: as §1

RD [3] = assay: as above
Procedure, shortened: as §1

HT1080 = assay: as above
Procedure, shortened: as §1

RD-ES = assay: as above
Procedure, shortened: as §1

SW1353 = assay: as above
Procedure, shortened: as §1

SK-ES-1 = assay: as above
Procedure, shortened: as §1

KHOS-240S = assay: as above
Procedure, shortened: as §1

KHOS-NP = assay: as above
Procedure, shortened: as §1

MES-SA [4] = assay: as above
Procedure, shortened: as §1

SW982 = assay: as above
Procedure, shortened: as §1

SW684 = assay: as above
Procedure, shortened: as §1

VA-ES-BJ [5] = assay: as above
Procedure, shortened: as §1

A204 = assay: as above
Procedure, shortened: as §1

SW872 = assay: as above
Procedure, shortened: as §1

HS729 [6] = assay: relative viability vs DMSO control (72 h) (fraction); higher = more viable cells
Procedure, shortened: (§2)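 Plates held 72 h at 37 °C and 5% CO2 contained sarcoma cell lines seeded in 384-well format to reach 80–90% confluence, plus 2.5 µl of serially diluted compound added after 24 h. Source plate concentrations ran from 10 mM to 0.0002 mM, with 0.1% DMSO as vehicle and a 5 µM positive control. Percent growth from ATPLite readings, averaged over up to triplicate wells, gave relative viability. Values were rescaled with 1 as full and 0 as none.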

SK-LMS-1 [7] = assay: as above
Procedure, shortened: as §2

RD [8] = assay: as above
Procedure, shortened: as §2

MES-SA [9] = assay: as above
Procedure, shortened: as §2

VA-ES-BJ [10] = assay: as above
Procedure, shortened: as §2

CN(C)CCCOc1ccc(-c2ccc3ncc4c(c3c2)n(C2CCOCC2)c(=O)n4C)cn1 [AZD-0156]
Settings	standardised AUC
A204	0.854
G401	0.963
HS729 [1]	0.883
HT1080	0.991
KHOS-240S	0.914
KHOS-NP	0.975
MES-SA [4]	0.887
RD [3]	0.921
RD-ES	0.785
SK-ES-1	0.748
SK-LMS-1 [2]	0.858
SW684	0.891
SW872	0.749
SW982	0.752
SW1353	0.917
SYO-1	0.777
VA-ES-BJ [5]	0.753

relative viability
Settings	HS729 [6]	MES-SA [9]	RD [8]	SK-LMS-1 [7]	VA-ES-BJ [10]
0.00017 µM	1	1.023	1.04	0.969	1.118
0.00051 µM	1.02	1.02	1.08	1.01	1.11
0.00152 µM	1.01	0.955	1.07	0.962	1.09
0.00457 µM	0.968	1.02	1.1	0.976	1.09
0.01372 µM	0.937	0.935	1.08	0.891	1.04
0.04115 µM	0.9191	0.97	1.11	0.881	0.949
0.1235 µM	0.857	0.901	1.07	0.7368	0.81
0.3704 µM	0.833	0.813	1.076	0.743	0.674
1.111 µM	0.766	0.716	0.949	0.665	0.462
3.333 µM	0.758	0.848	0.592	0.7995	0.453
10 µM	0.519	0.654	0.536	0.674	0.348

C#Cc1cccc(Nc2ncnc3cc4c(cc23)OCCOCCOCCO4)c1 [Icotinib]
relative viability
Settings	HS729 [6]	MES-SA [9]	RD [8]	SK-LMS-1 [7]	VA-ES-BJ [10]
0.00017 µM	1.08	0.972	1.09	1.08	1.09
0.00051 µM	1.091	0.945	1.1	1.05	1.1
0.00152 µM	1.01	0.958	1.13	1.07	1.1
0.00457 µM	1	0.937	1.124	1.07	1.06
0.01372 µM	0.99	0.936	1.15	1.07	1.08
0.04115 µM	0.99	0.952	1.08	1.06	1.07
0.1235 µM	0.97	0.952	1.12	1.04	1.08
0.3704 µM	0.971	0.922	1.15	1.09	1.08
1.111 µM	0.957	0.912	1.1	1.05	1.05
3.333 µM	0.892	0.869	1.15	1.033	1.04
10 µM	0.8227	0.8	1.14	0.998	1.01

CN(C)C(=O)c1cc2cnc(Nc3ccc(N4CCNCC4)cn3)nc2n1C1CCCC1 [Ribociclib]
relative viability
Settings	HS729 [6]	MES-SA [9]	RD [8]	SK-LMS-1 [7]	VA-ES-BJ [10]
0.00017 µM	0.88	0.899	1.13	1.05	1.03
0.00051 µM	0.877	0.909	1.06	1.05	1.04
0.00152 µM	0.878	0.914	1.08	1.12	1.01
0.00457 µM	0.893	0.908	1.12	1.08	0.995
0.01372 µM	0.905	0.896	1.09	1.09	0.988
0.04115 µM	0.915	0.884	1.05	1.11	0.985
0.1235 µM	0.928	0.868	1.04	1.06	0.931
0.3704 µM	0.875	0.853	1.06	1.01	0.869
1.111 µM	0.89	0.817	0.995	0.99	0.872
3.333 µM	0.87	0.6876	0.915	0.952	0.712
10 µM	0.869	0.598	0.87	0.9041	0.597

O=C(c1ccc(F)c(F)c1Nc1ccc(I)cc1F)N1CC(O)([C@@H]2CCCCN2)C1 [Cobimetinib]
relative viability
Settings	HS729 [6]	MES-SA [9]	RD [8]	SK-LMS-1 [7]	VA-ES-BJ [10]
0.00017 µM	0.9644	0.934	1.1	1.06	1.05
0.00051 µM	1	0.948	1.1	1.09	1.07
0.00152 µM	0.97	0.925	1.07	1.05	1.05
0.00457 µM	0.962	0.899	1.02	1.02	1.02
0.01372 µM	0.915	0.896	0.88	0.989	0.982
0.04115 µM	0.922	0.824	0.766	0.767	0.906
0.1235 µM	0.876	0.786	0.636	0.584	0.747
0.3704 µM	0.852	0.752	0.539	0.398	0.638
1.111 µM	0.763	0.721	0.461	0.299	0.567
3.333 µM	0.6553	0.6391	0.346	0.1728	0.451
10 µM	0.241	0.0114	0.0053	0.0129	0.209
